Measured values reported in doi:10.1101/2023.04.18.537371v1 (bioRxiv, 2023).
Peptide text beside a SMILES is read from it.

Tests used:
dog hepatocytes = assay: Metabolite identification in hepatocytes; format: in vitro ADME; conditions: cryopreserved dog hepatocytes, FC-12738 10 μM, 37 °C, 240 min, LC-UV-MS
[1] = Plasma and brain levels in male CD-1 mice after a single IP dose; format: in vivo, CD-1 mouse; conditions: for Tissue Homogenate Conc / Plasma Conc: male CD-1 mice, IP 10 mg/kg single
OAT3 = OAT3 (Homo sapiens, UniProt Q8TCC7); assay: Transporter inhibition in HEK293 cells; format: in vitro ADME
Plasma stability = format: in vitro ADME, cynomolgus monkey
[2] = Excretion study in SD rats following single subcutaneous administration; format: in vivo, SD rat; conditions: for Accumulative Dose Recovery: 0 h, n=3, mean
[3] = Tissue distribution in SD rats after single subcutaneous injection; format: in vivo, SD rat
BCRP = BCRP (Homo sapiens, UniProt Q9UNQ0); assay: Inhibition of BCRP in Caco-2 cells; format: in vitro ADME
[4] = In vitro blood to plasma partitioning; format: in vitro ADME, rat; conditions: for Mean erythrocyte to plasma ratio KE/P: rat whole blood, 37°C, 60 min
[5] = male, CD-1, mouse, brain homogenate, ip, 10 mg/kg
[6] = male, CD-1, mouse, brain, ip, 10 mg/kg
[7] = male, CD-1, mouse, plasma, ip, 10 mg/kg
[8] = male, SD, rat, urine, sc, 10 mg/kg
[9] = male, Sprague-Dawley, rat, bile, sc, 10 mg/kg
[10] = male, Sprague-Dawley, rat, feces, sc, 10 mg/kg
[11] = male, Sprague-Dawley, rat, urine + feces, sc, 10 mg/kg
[12] = male, Sprague-Dawley, rat, urine, sc, 10 mg/kg
[13] = kidney, male SD rats, SC 10 mg/kg single
[14] = large intestine, male SD rats, SC 10 mg/kg single
[15] = liver, male SD rats, SC 10 mg/kg single
[16] = lung, male SD rats, SC 10 mg/kg single
[17] = male, SD, rat, fat, sc, 10 mg/kg
[18] = male, SD, rat, heart, sc, 10 mg/kg
[19] = male, SD, rat, kidney, sc, 10 mg/kg
[20] = male, SD, rat, large intestine, sc, 10 mg/kg
[21] = male, SD, rat, liver, sc, 10 mg/kg
[22] = male, SD, rat, lung, sc, 10 mg/kg
[23] = male, SD, rat, muscle, sc, 10 mg/kg
[24] = male, SD, rat, plasma, sc, 10 mg/kg
[25] = male, SD, rat, small intestine, sc, 10 mg/kg
[26] = male, SD, rat, spleen, sc, 10 mg/kg
[27] = male, SD, rat, stomach, sc, 10 mg/kg
[28] = muscle, male SD rats, SC 10 mg/kg single
[29] = small intestine, male SD rats, SC 10 mg/kg single
[30] = spleen, male SD rats, SC 10 mg/kg single
[31] = stomach, male SD rats, SC 10 mg/kg single

Chain of OAT3 (Q8TCC7 whole entry): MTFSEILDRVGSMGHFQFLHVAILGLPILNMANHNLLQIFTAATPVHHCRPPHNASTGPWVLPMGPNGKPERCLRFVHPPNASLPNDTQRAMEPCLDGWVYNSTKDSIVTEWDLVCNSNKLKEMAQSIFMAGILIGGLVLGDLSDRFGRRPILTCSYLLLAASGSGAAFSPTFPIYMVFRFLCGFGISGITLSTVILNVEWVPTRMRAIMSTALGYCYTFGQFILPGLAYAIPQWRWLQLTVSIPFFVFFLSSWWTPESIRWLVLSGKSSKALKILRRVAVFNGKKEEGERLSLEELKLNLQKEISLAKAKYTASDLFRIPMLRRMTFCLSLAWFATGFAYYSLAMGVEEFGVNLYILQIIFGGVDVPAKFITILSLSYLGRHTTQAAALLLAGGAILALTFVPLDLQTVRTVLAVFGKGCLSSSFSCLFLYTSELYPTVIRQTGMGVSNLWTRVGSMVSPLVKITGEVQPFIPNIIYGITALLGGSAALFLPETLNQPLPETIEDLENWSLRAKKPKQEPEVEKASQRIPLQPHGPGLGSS
Chain of BCRP (Q9UNQ0 whole entry): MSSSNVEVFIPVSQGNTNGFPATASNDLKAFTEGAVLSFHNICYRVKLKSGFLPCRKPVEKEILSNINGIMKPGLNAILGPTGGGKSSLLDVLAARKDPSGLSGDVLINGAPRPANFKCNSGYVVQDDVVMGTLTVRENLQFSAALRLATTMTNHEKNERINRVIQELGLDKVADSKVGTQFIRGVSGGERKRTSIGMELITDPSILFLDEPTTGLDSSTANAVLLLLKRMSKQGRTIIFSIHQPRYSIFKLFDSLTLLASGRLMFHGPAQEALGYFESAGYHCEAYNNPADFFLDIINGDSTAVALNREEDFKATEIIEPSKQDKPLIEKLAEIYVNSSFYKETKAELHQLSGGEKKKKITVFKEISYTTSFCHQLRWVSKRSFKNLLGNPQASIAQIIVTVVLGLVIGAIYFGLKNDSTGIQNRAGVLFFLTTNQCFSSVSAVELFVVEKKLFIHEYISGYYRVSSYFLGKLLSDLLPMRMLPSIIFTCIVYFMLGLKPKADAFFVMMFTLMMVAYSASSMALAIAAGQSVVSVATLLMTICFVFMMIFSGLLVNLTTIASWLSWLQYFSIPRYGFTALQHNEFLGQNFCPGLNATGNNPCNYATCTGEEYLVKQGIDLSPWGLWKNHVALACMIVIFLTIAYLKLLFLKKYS

CC(C)[C@@H](NC(=O)[C@H](N)Cc1ccc(O)cc1)C(=O)N[C@H](CC(=O)O)C(=O)N[C@H](CCCCN)C(=O)N[C@H](CCCNC(=N)N)C(=O)O [FC-12738, (D-Tyr)-(D-Val)-(D-Asp)-(D-Lys)-(D-Arg)] (HELM PEPTIDE1{[dY].[dV].[dD].[dK].[dR]}$$$$V2.0)
Relative Abundance (UV%) (dog hepatocytes): 80.76% | Tissue Homogenate Conc ([1]; brain homogenate, 0.5 h, animal 2): 17.6 ng/mL | Tissue Homogenate Conc ([1]; brain homogenate, 0.5 h, animal 3): 14.1 ng/mL | Tissue Homogenate Conc ([1]; brain homogenate, 1 h, animal 1): 8.28 ng/mL | Tissue Homogenate Conc ([1]; brain homogenate, 1 h, animal 2): 10.1 ng/mL | Tissue Homogenate Conc ([1]; brain homogenate, 1 h, animal 3): 8.41 ng/mL | Tissue Homogenate Conc ([1]; brain homogenate, 2 h, animal 1): 6.96 ng/mL | Tissue Homogenate Conc ([1]; brain homogenate, 2 h, animal 2): 5.73 ng/mL | Tissue Homogenate Conc ([1]; brain homogenate, 2 h, animal 3): 7.47 ng/mL | Tissue Homogenate Conc ([1]; brain homogenate, 4 h, animal 1): 1.76 ng/mL | Tissue Homogenate Conc ([1]; brain homogenate, 4 h, animal 2): 1.22 ng/mL | Tissue Homogenate Conc ([1]; brain homogenate, 4 h, animal 3): 1.06 ng/mL | level at 0.5 h [1, 5]: 16.4 ng/mL | level at 1 h [1, 5]: 8.93 ng/mL | level at 2 h [1, 5]: 6.72 ng/mL | level at 4 h [1, 5]: 1.35 ng/mL | tissue level at time at 0.5 h [1, 6]: 65.5 ng/g | tissue level at time at 1 h [1, 6]: 35.7 ng/g | tissue level at time at 2 h [1, 6]: 26.9 ng/g | tissue level at time at 4 h [1, 6]: 5.39 ng/g | level at 0.5 h [1, 7]: 2090 ng/mL | level at 1 h [1, 7]: 1210 ng/mL | level at 2 h [1, 7]: 627 ng/mL | level at 4 h [1, 7]: 84.1 ng/mL | level at 8 h [1, 7]: 16.7 ng/mL | Plasma Conc ([1]; plasma, 0.5 h, animal 1, LC-MS/MS): 2230 ng/mL | Plasma Conc ([1]; plasma, 0.5 h, animal 2): 1790 ng/mL | Plasma Conc ([1]; plasma, 0.5 h, animal 3): 2260 ng/mL | Plasma Conc ([1]; plasma, 1 h, animal 1): 885 ng/mL | Plasma Conc ([1]; plasma, 1 h, animal 2): 1320 ng/mL | Plasma Conc ([1]; plasma, 1 h, animal 3): 1420 ng/mL | Plasma Conc ([1]; plasma, 2 h, animal 1): 543 ng/mL | Plasma Conc ([1]; plasma, 2 h, animal 2): 592 ng/mL | Plasma Conc ([1]; plasma, 2 h, animal 3): 745 ng/mL | Plasma Conc ([1]; plasma, 4 h, animal 1): 97.9 ng/mL | Plasma Conc ([1]; plasma, 4 h, animal 2): 74.6 ng/mL | Plasma Conc ([1]; plasma, 4 h, animal 3): 79.8 ng/mL | Plasma Conc ([1]; plasma, 8 h, animal 1): 19.1 ng/mL | Plasma Conc ([1]; plasma, 8 h, animal 2): 17.5 ng/mL | Plasma Conc ([1]; plasma, 8 h, animal 3): 13.4 ng/mL | IC50 (OAT3): > 100 µM | half-life (Plasma stability; cynomolgus monkey plasma, 2.00 μM, 37.0 °C, up to 120 min): > 372.7 min | remaining at 10 min, 2 μM (Plasma stability; monkey, plasma): 105% | remaining at 0.5 h, 2 μM (Plasma stability; monkey, plasma): 105% | remaining at 1 h, 2 μM (Plasma stability; monkey, plasma): 105% | remaining at 2 h, 2 μM (Plasma stability; monkey, plasma): 102% | Accumulative Dose Recovery ([2]; bile, male bile-duct-cannulated SD rats, SC 10 mg/kg single): 0.00% | Accumulative Dose Recovery ([2]; feces, male intact SD rats, SC 10 mg/kg single): 0.00% | Tolerability / adverse effects in-life ([2]; male SD rats, SC 10 mg/kg single, excretion study): No adverse effect was observed | dose excreted at 96 h [2, 8]: 86.4% | dose excreted at 120 h [2, 8]: 86.6% | dose excreted at 144 h [2, 8]: 86.7% | dose excreted at 4 h [2, 9]: 0.284% | dose excreted at 12 h [2, 9]: 0.314% | dose excreted at 24 h [2, 9]: 0.324% | dose excreted at 48 h [2, 9]: 0.331% | dose excreted at 72 h [2, 9]: 0.336% | dose excreted at 4 h [2, 10]: 0.00168% | dose excreted at 8 h [2, 10]: 0.00239% | dose excreted at 24 h [2, 10]: 1.74% | dose excreted at 48 h [2, 10]: 2.08% | dose excreted at 72 h [2, 10]: 2.14% | dose excreted at 96 h [2, 10]: 2.16% | dose excreted at 120 h [2, 10]: 2.18% | dose excreted at 144 h [2, 10]: 2.19% | dose excreted at 168 h [2, 10]: 2.19% | dose excreted at 4 h [2, 11]: 56.2% | dose excreted at 8 h [2, 11]: 78.2% | dose excreted at 24 h [2, 11]: 85.8% | dose excreted at 48 h [2, 11]: 88.2% | dose excreted at 72 h [2, 11]: 88.5% | dose excreted at 96 h [2, 11]: 88.6% | dose excreted at 120 h [2, 11]: 88.7% | dose excreted at 144 h [2, 11]: 88.9% | dose excreted at 168 h [2, 11]: 88.9% | dose excreted at 4 h [2, 12]: 56.2% | dose excreted at 8 h [2, 12]: 78.2% | dose excreted at 24 h [2, 12]: 84% | dose excreted at 48 h [2, 12]: 86.1% | dose excreted at 72 h [2, 12]: 86.4% | dose excreted at 168 h [2, 12]: 86.7% | Accumulative Dose Recovery ([2]; total (urine + feces), male intact SD rats, SC 10 mg/kg single): 0.00% | Accumulative Dose Recovery ([2]; urine, male intact SD rats, SC 10 mg/kg single): 0.00% | AUC0-last [3, 13]: 135000 ng·h/g | Cmax [3, 13]: 28500 ng/g | Tmax [3, 13]: 30 min | AUC0-last [3, 14]: 4040 ng·h/g | Cmax [3, 14]: 2150 ng/g | Tmax [3, 14]: 30 min | AUC0-last [3, 15]: 4190 ng·h/g | Cmax [3, 15]: 1270 ng/g | Tmax [3, 15]: 30 min | AUC0-last [3, 16]: 6840 ng·h/g | Cmax [3, 16]: 5330 ng/g | Tmax [3, 16]: 30 min | Tolerability / adverse effects in-life ([3]; male SD rats, SC 10 mg/kg single, tissue distribution study): No adverse effect was observed | tissue level at time at 0.5 h ([3]; male, SD, rat, brain, sc, 10 mg/kg): 128 ng/g | tissue level at time at 0.5 h [3, 17]: 1070 ng/g | tissue level at time at 2 h [3, 17]: 103 ng/g | tissue level at time at 0.5 h [3, 18]: 2150 ng/g | tissue level at time at 2 h [3, 18]: 365 ng/g | tissue level at time at 0.5 h [3, 19]: 28500 ng/g | tissue level at time at 2 h [3, 19]: 17300 ng/g | tissue level at time at 8 h [3, 19]: 14300 ng/g | tissue level at time at 0.5 h [3, 20]: 2150 ng/g | tissue level at time at 2 h [3, 20]: 430 ng/g | tissue level at time at 8 h [3, 20]: 226 ng/g | tissue level at time at 0.5 h [3, 21]: 1270 ng/g | tissue level at time at 2 h [3, 21]: 616 ng/g | tissue level at time at 8 h [3, 21]: 269 ng/g | tissue level at time at 0.5 h [3, 22]: 5330 ng/g | tissue level at time at 2 h [3, 22]: 752 ng/g | tissue level at time at 8 h [3, 22]: 109 ng/g | tissue level at time at 0.5 h [3, 23]: 1490 ng/g | tissue level at time at 2 h [3, 23]: 191 ng/g | tissue level at time at 8 h [3, 23]: 46.4 ng/g | AUC(0-t) [3, 24]: 14400 ng·h/mL | Cmax [3, 24]: 14200 ng/mL | Tmax [3, 24]: 30 min | level at 0.5 h [3, 24]: 14200 ng/mL | level at 2 h [3, 24]: 1790 ng/mL | level at 8 h [3, 24]: 5.04 ng/mL | tissue level at time at 0.5 h [3, 25]: 2060 ng/g | tissue level at time at 2 h [3, 25]: 775 ng/g | tissue level at time at 8 h [3, 25]: 188 ng/g | tissue level at time at 0.5 h [3, 26]: 1490 ng/g | tissue level at time at 2 h [3, 26]: 345 ng/g | tissue level at time at 8 h [3, 26]: 239 ng/g | tissue level at time at 0.5 h [3, 27]: 3370 ng/g | tissue level at time at 2 h [3, 27]: 555 ng/g | tissue level at time at 8 h [3, 27]: 96.7 ng/g | AUC0-last [3, 28]: 1930 ng·h/g | Cmax [3, 28]: 1490 ng/g | Tmax [3, 28]: 30 min | AUC0-last [3, 29]: 4970 ng·h/g | Cmax [3, 29]: 2060 ng/g | Tmax [3, 29]: 30 min | AUC0-last [3, 30]: 3280 ng·h/g | Cmax [3, 30]: 1490 ng/g | Tmax [3, 30]: 30 min | AUC0-last [3, 31]: 4760 ng·h/g | Cmax [3, 31]: 3370 ng/g | Tmax [3, 31]: 30 min | IC50 (BCRP): > 100 µM | Mean erythrocyte to plasma ratio KE/P ([4]; 0.200 μM): < 0.21 | Mean erythrocyte to plasma ratio KE/P ([4]; 2.00 μM): < 0.11 | Mean erythrocyte to plasma ratio KE/P ([4]; 10.0 μM): < 0.03 | tissue to tissue ratio at 1 h, 0.2 µM ([4]; rat, whole blood): 0.48 | tissue to tissue ratio at 1 h, 2 µM ([4]; rat, whole blood): 0.5 | tissue to tissue ratio at 1 h, 10 µM ([4]; rat, whole blood): 0.47
